Patent US10457707B2, “Substituted urea depsipeptide analogs as activators of the CLPP endopeptidase” (priority 2015, dated 2019)
Converted amounts (≈) assume the structure as drawn. Where two headings read alike, the source gives them in different places. *1 amine or outer side, *2 acyl side, *3 side chain or, on linkers, in order; H or OH if unused. Where a SMILES comes first, the peptide text is derived from it. Bridges are numbered along the chain shown (N, C = ends). [ ]: non-standard residue; d: D form. The star is where a group is joined. ξ: configuration not given here. NH(1,3-benzodioxol-5-yl) = c1cc2c(cc1N*)OCO2; Phe(3,5-F2) = N[C@@H](Cc1cc(F)cc(F)c1)C(=O)O; NH(4-OCF3-phenyl) = FC(F)(F)Oc1ccc(N*)cc1; Pro(4S-Me) = C[C@@H]1CN[C@H](C(=O)O)C1; Pro(4R-Me) = C[C@H]1CN[C@H](C(=O)O)C1; X9 = CC1(C)CC(C(=O)[*:2])N([*:1])C1; ξPro(4S-Me) = C[C@@H]1CNC(C(=O)O)C1; ξPro(4R-Me) = C[C@H]1CNC(C(=O)O)C1; Hyp = O=C(O)[C@@H]1C[C@@H](O)CN1; NH(4-Me-phenyl) = Cc1ccc(N*)cc1; aThr = C[C@H](O)[C@H](N)C(=O)O; X5 = O=C(C1COCCN1[*:1])[*:2]; Pip = O=C(O)[C@@H]1CCCCN1; NMeA = CN[C@@H](C)C(=O)O; ξPip = O=C(O)C1CCCCN1; CO = O=C([*:1])[*:2]; ξP = O=C(O)C1CCCN1

Legend:
Type in all cases: cell-based
[1] = test system: Bacillus subtilis, ATCC 23857; experiment: Minimal inhibitory concentration assay (microbroth dilution)
Experimental: (§1) It is understood, that in various aspects, the MIC is determined by a microbroth dilution method. In a further aspect, the MIC is determined by a microbroth dilution method using Staphylococcus aureus, ATCC 29213. In a still further aspect, the MIC is determined by a microbroth dilution method using Staphylococcus aureus, NRS70. In a yet further aspect, the MIC is determined by a microbroth dilution method using Streptococcus pyogenes, ATCC 700294. In an even further aspect, the MIC is determined by a microbroth dilution method using Streptococcus pneumoniae, DAW27. In a still further aspect, the MIC is determined by a microbroth dilution method using Bacillus subtilis, ATCC 23857. In a yet further aspect, the MIC is determined by a microbroth dilution method using Enterococcus faecalis, ATCC 33186. In an even further aspect, the MIC is determined using Staphylococcus aureus, USA 300. In a still further aspect, the MIC is determined using Streptococcus pneumoniae, R6. In a further aspect, the MIC is determined using Staphylococcus aureus, USA 300 and compared to the MIC determined using Staphylococcus aureus, USA 300 wherein ClpP is inactivated, thus allowing confirmation that killing is via a ClpP-dependent pathway.
(§2) Minimal inhibitory concentrations (“MICs”) were determined using the microbroth dilution method according to Clinical Laboratory Standards Institute (CLSI; National, C.F. C. L. S., Methods for Dilution Antimicrobial Susceptibility Tests for Bacteria Grow aerobically-Seventh Edition: Approved Standard M7-A7, CLSI, Wayne, Pa., USA, 2008) and were read by visual inspection. Two fold serial dilutions of test compound in 100 μL of the appropriate broth media were first prepared in 96-well round bottom microtiter plates (Nalgene Nunc International, Rochester, N.Y., USA). An equivalent volume (100 μL) of bacterial broth inocula containing approximately 10^5 bacterial cfu/mL was added to each well to give final concentrations of test compound starting at 200 μM. The plates were then incubated aerobically at 37° C. All strains were incubated overnight. After incubations, in all cases the MIC was recorded as the lowest concentration of drug that prevented bacterial growth. The bacterial strains for which MIC was determined as described in Table 4.

[2] = test system: Enterococcus faecalis, ATCC 33186; experiment: as above; conditions: Enterococcus faecalis, ATCC33186; read-out: Minimal Inhibitory Concentrations E. faecalis ATCC 33186
Experimental: as §1, §2

[3] = test system: Staphylococcus aureus, ATCC 29213; experiment: as above; conditions: ATCC29213, read-out: Minimal Inhibitory Concentrations S. aureus ATCC 29213
Experimental: as §1, §2

[4] = test system: Staphylococcus aureus, NRS70; experiment: as above
Experimental: as §1, §2

[5] = test system: Streptococcus pyogenes, ATCC 700294; experiment: as above
Experimental: as §1
Minimal inhibitory concentrations (“MICs”) were determined using the microbroth dilution method according to Clinical Laboratory Standards Institute (CLSI; National, C.F. C. L. S., Methods for Dilution Antimicrobial Susceptibility Tests for Bacteria Grow aerobically-Seventh Edition: Approved Standard M7-A7, CLSI, Wayne, Pa., USA, 2008) and were read by visual inspection. Two fold serial dilutions of test compound in 100 μL of the appropriate broth media were first prepared in 96-well round bottom microtiter plates (Nalgene Nunc International, Rochester, N.Y., USA). […] The plates were then incubated aerobically at 37° C. All strains were incubated overnight. After incubations, in all cases the MIC was recorded as the lowest concentration of drug that prevented bacterial growth. The bacterial strains for which MIC was determined as described in Table 4.

[6] = test system: Staphylococcus aureus, USA 300 wherein ClpP is inactivated; experiment: Minimal inhibitory concentration assay
Experimental: as §1, §2

[7] = test system: Staphylococcus aureus, USA 300; experiment: Minimal inhibitory concentration assay; conditions: USA300, read-out: Minimal Inhibitory Concentrations S. aureus USA 300
Experimental: as §1, §2

[8] = test system: Streptococcus pneumoniae, R6; experiment: Minimal inhibitory concentration assay; conditions: read-out: Minimal Inhibitory Concentrations S. pneumoniae R6
Experimental: It is understood, that in various aspects, the MIC is determined by a microbroth dilution method. […] In a still further aspect, the MIC is determined by a microbroth dilution method using Staphylococcus aureus, NRS70. […] In an even further aspect, the MIC is determined by a microbroth dilution method using Streptococcus pneumoniae, DAW27. […] In an even further aspect, the MIC is determined using Staphylococcus aureus, USA 300. In a still further aspect, the MIC is determined using Streptococcus pneumoniae, R6. In a further aspect, the MIC is determined using Staphylococcus aureus, USA 300 and compared to the MIC determined using Staphylococcus aureus, USA 300 wherein ClpP is inactivated, thus allowing confirmation that killing is via a ClpP-dependent pathway.
Two fold serial dilutions of test compound in 100 μL of the appropriate broth media were first prepared in 96-well round bottom microtiter plates (Nalgene Nunc International, Rochester, N.Y., USA). […] The plates were then incubated aerobically at 37° C. All strains were incubated overnight. After incubations, in all cases the MIC was recorded as the lowest concentration of drug that prevented bacterial growth. The bacterial strains for which MIC was determined as described in Table 4.

[9] = Bacillus subtilis, ATCC23857; read-out: Minimal Inhibitory Concentrations B. subtilis ATCC 23857
[10] = Staphylococcus aureus, NRS70; read-out: Minimal Inhibitory Concentrations S. aureus NRS70
[11] = Streptococcus pyogenes, ATCC700294; read-out: Minimal Inhibitory Concentrations S. pyogenes ATCC 700294
[12] = Bacillus subtilis, ATCC23857, read-out: Minimal Inhibitory Concentrations B. subtilis ATCC 23857
[13] = Staphylococcus aureus, NRS70, read-out: Minimal Inhibitory Concentrations S. aureus NRS70
[14] = Streptococcus pyogenes, ATCC700294, read-out: Minimal Inhibitory Concentrations S. pyogenes ATCC 700294

Structure (SMILES) | MIC [1, 9] [µM] | MIC [2] [µM] | MIC [3] [µM] | MIC [4, 10] [µM] | MIC [5, 11] [µM] | Minimal Inhibitory Concentrations S. aureus USA 300 ΔClpP [6] [µM] | MIC [7] [µM] | MIC [8] [µM] | MIC [1, 12] [µM] | MIC [4, 13] [µM] | MIC [5, 14] [µM]
C[C@@H]1NC(=O)[C@@H]2CCCCN2C(=O)[C@@H]2CCCN2C(=O)[C@@H](NC(=O)[C@H](Cc2cc(F)cc(F)c2)NC(=O)Nc2ccc3c(c2)OCO3)[C@H](C)OC(=O)[C@@H]2CCCN2C1=O [Compound 17, (S)-2-(3-(benzo[d][1,3]dioxol-5-yl)ureido)-3-(3,5-difluorophenyl)-N-((6S,8aS,14aS,20S,21S,23aS)-6,21-dimethyl-5,8,14,19,23-pentaoxooctadecahydro-1H,5H,14H,19H-pyrido[2,1-i]dipyrrolo[2,1-c:2′,1′-l][1]oxa[4,7,10,13]tetraazacyclohexadecin-20-yl)propanamide] ({NH(1,3-benzodioxol-5-yl)-CO}-[Phe(3,5-F2)][aThr]P[Pip]AP; ester 2-C) | 0.4 (≈ 0.33 µg/mL) | < 0.1 | 3.1 (≈ 2.55 µg/mL) | 3.1 (≈ 2.55 µg/mL) | 1.5 (≈ 1.24 µg/mL) | 200 | 3.1 (≈ 2.55 µg/mL) | – | – | – | –
C[C@H]1C[C@H]2C(=O)O[C@@H](C)[C@H](NC(=O)[C@H](Cc3cc(F)cc(F)c3)NC(=O)Nc3ccc4c(c3)OCO4)C(=O)N3CCC[C@H]3C(=O)N3CCCC[C@H]3C(=O)N[C@@H](C)C(=O)N2C1 [Compound 20, (S)-2-(3-(benzo[d][1,3]dioxol-5-yl)ureido)-3-(3,5-difluorophenyl)-N-((2R,6S,8aS,14aS,20S,21S,23aS)-2,6,21-trimethyl-5,8,14,19,23-pentaoxooctadecahydro-1H,5H,14H,19H-pyrido[2,1-i]dipyrrolo[2,1-c:2′,1′-l][1]oxa[4,7,10,13]tetraazacyclohexadecin-20-yl)propanamide] ({NH(1,3-benzodioxol-5-yl)-CO}-[Phe(3,5-F2)][aThr]P[Pip]A[Pro(4S-Me)]; ester 2-C) | < 0.1 | < 0.1 | 0.8 (≈ 0.67 µg/mL) | 0.4 (≈ 0.335 µg/mL) | 0.4 (≈ 0.335 µg/mL) | 200 | 0.8 (≈ 0.67 µg/mL) | – | – | – | –
C[C@H]1CC2C(=O)O[C@@H](C)[C@H](NC(=O)[C@H](Cc3cc(F)cc(F)c3)NC(=O)Nc3ccc(OC(F)(F)F)cc3)C(=O)N3CCCC3C(=O)N(C)[C@@H](C)C(=O)N[C@@H](C)C(=O)N2C1 (stereo partly drawn) [Compound 28, (2S)-3-(3,5-difluorophenyl)-N-((2S,6S,9S,11aS,17S,18S)-2,6,9,10,18-pentamethyl-5,8,11,16,20-pentaoxohexadecahydro-1H,5H,16H-dipyrrolo[2,1-c:2′,1′-l][1]oxa[4,7,10,13]tetraazacyclohexadecin-17-yl)-2-(3-(4-(trifluoromethoxy)phenyl)ureido)propanamide] ({NH(4-OCF3-phenyl)-CO}-[Phe(3,5-F2)][aThr][ξP][NMeA]A[ξPro(4S-Me)]; ester 2-C) | 0.01 (≈ 0.00852 µg/mL) | – | 0.05 (≈ 0.0426 µg/mL) | 0.05 (≈ 0.0426 µg/mL) | 0.23 (≈ 0.196 µg/mL) | – | 0.1 (≈ 0.0852 µg/mL) | 0.029 (≈ 0.0247 µg/mL) | – | – | –
Cc1ccc(NC(=O)N[C@@H](Cc2cc(F)cc(F)c2)C(=O)N[C@@H]2C(=O)N3CCCC3C(=O)N3CCOCC3C(=O)N[C@@H](C)C(=O)N3C[C@H](C)CC3C(=O)O[C@H]2C)cc1 (stereo partly drawn) [Compound 47, (S)-3-(3,5-difluorophenyl)-2-(3-(p-tolyl)ureido)-N-((6aS,12S,13S,15aS,17R,21S,23aS)-13,17,21-trimethyl-6,11,15,20,23-pentaoxooctadecahydro-6H,11H,15H-[1,4]oxazino[3,4-i]dipyrrolo[2,1-c:2′,1′-l][1]oxa[4,7,10,13]tetraazacyclohexadecin-12-yl)propanamide] ({NH(4-Me-phenyl)-CO}-[Phe(3,5-F2)][aThr][ξP][X5]A[ξPro(4R-Me)]; ester 2-C) | – | – | 0.003 (≈ 0.00243 µg/mL) | – | – | >200 | 0.01 (≈ 0.0081 µg/mL) | 0.002 (≈ 0.00162 µg/mL) | 0.8 (≈ 0.648 µg/mL) | 0.0002 (≈ 0.000162 µg/mL) | 0.02 (≈ 0.0162 µg/mL)
Cc1ccc(NC(=O)N[C@@H](Cc2cc(F)cc(F)c2)C(=O)N[C@H]2COC(=O)C3C[C@H](C)CN3C(=O)[C@H](C)NC(=O)C3CCCCN3C(=O)C3CCCN3C2=O)cc1C (stereo partly drawn) [Compound 48, (S)-3-(3,5-difluorophenyl)-N-((2S,6S,8aS,14aS,20S,23aS)-2,6-dimethyl-5,8,14,19,23-pentaoxooctadecahydro-1H,5H,14H,19H-pyrido[2,1-i]dipyrrolo[2,1-c:2′,1′-l][1]oxa[4,7,10,13]tetraazacyclohexadecin-20-yl)-2-(3-(3,4-dimethylphenyl)ureido)propanamide] | – | – | 1.6 (≈ 1.29 µg/mL) | – | – | 200 | 1.6 (≈ 1.29 µg/mL) | 0.8 (≈ 0.646 µg/mL) | 0.2 (≈ 0.162 µg/mL) | 0.4 (≈ 0.323 µg/mL) | 3.1 (≈ 2.5 µg/mL)
Cc1ccc(NC(=O)N[C@@H](Cc2cc(F)cc(F)c2)C(=O)N[C@H]2COC(=O)C3CC(C)(C)CN3C(=O)[C@H](C)NC(=O)C3CCCCN3C(=O)C3CCCN3C2=O)cc1 (stereo partly drawn) [Compound 49, (S)-3-(3,5-difluorophenyl)-2-(3-(p-tolyl)ureido)-N-((6S,8aS,14aS,20S,23aS)-2,2,6-trimethyl-5,8,14,19,23-pentaoxooctadecahydro-1H,5H,14H,19H-pyrido[2,1-i]dipyrrolo[2,1-c:2′,1′-l][1]oxa[4,7,10,13]tetraazacyclohexadecin-20-yl)propanamide] ({NH(4-Me-phenyl)-CO}-[Phe(3,5-F2)]S[ξP][ξPip]A[X9]; ester 2-C) | – | – | 12.5 (≈ 10.1 µg/mL) | – | – | 100 | 25 (≈ 20.2 µg/mL) | 6.3 (≈ 5.09 µg/mL) | 0.4 (≈ 0.323 µg/mL) | 12.5 (≈ 10.1 µg/mL) | 25 (≈ 20.2 µg/mL)
Cc1ccc(NC(=O)N[C@@H](Cc2cc(F)cc(F)c2)C(=O)N[C@@H]2C(=O)N3C[C@H](O)C[C@H]3C(=O)N3CCCC[C@H]3C(=O)N[C@@H](C)C(=O)N3C[C@H](C)C[C@H]3C(=O)O[C@H]2C)cc1 [Compound 216, (S)-3-(3,5-difluorophenyl)-N-((2R,6S,8aS,14aS,16R,20S,21S,23aS)-16-hydroxy-2,6,21-trimethyl-5,8,14,19,23-pentaoxooctadecahydro-1H,5H,14H,19H-pyrido[2,1-i]dipyrrolo[2,1-c:2′,1′-l][1]oxa[4,7,10,13]tetraazacyclohexadecin-20-yl)-2-(3-(p-tolyl)ureido)propanamide] ({NH(4-Me-phenyl)-CO}-[Phe(3,5-F2)][aThr][Hyp][Pip]A[Pro(4R-Me)]; ester 2-C) | – | – | – | – | – | – | 0.1 (≈ 0.0824 µg/mL) | 0.001 (≈ 0.000824 µg/mL) | 0.2 (≈ 0.165 µg/mL) | 0.2 (≈ 0.165 µg/mL) | 0.2 (≈ 0.165 µg/mL)
